Measured values taken from patent US20260070899A1, “N-(2-(4-CYANOTHIAZOLIDIN-3-YL)-2-OXOETHYL)-QUINOLINE-4-CARBOXAMIDES” (AstraZeneca AB, priority 2022, published 2026).
pIC50, pKd: −log10 of the molar value. ≈ marks a conversion by molar mass, not a printed value.

Legend:
Rat Hepatocytes (rHep) = assay: Metabolic stability in rat hepatocytes (rHep); assay type: in vitro ADME; conditions: n = 1 or geometric mean (n = 2-3)
Procedure: Metabolic stability in rat hepatocytes was measured as described in J Comput Aided Mol Des 2015, 29, 795.

[1] = Metabolic stability in human liver microsomes (HLM); assay type: in vitro ADME; conditions: n = 1 or average (n = 2-3)
Procedure: Metabolic stability in HLM was measured as described in J Comput Aided Mol Des 2015, 29, 795.

Kinetic solubility = assay type: physicochemical; conditions: kinetic from dmso stock, n = 1 or average (n = 2-4)
Procedure: Kinetic solubility was measured as described in Comput Aided Mol Des 2015, 29, 795.

[2] = target: T1, Prolyl endopeptidase, Prolyl Oligopeptidase (hPREP) (Homo sapiens, UniProt P48147); assay: biochemical
T1 sequence (P48147 1-710): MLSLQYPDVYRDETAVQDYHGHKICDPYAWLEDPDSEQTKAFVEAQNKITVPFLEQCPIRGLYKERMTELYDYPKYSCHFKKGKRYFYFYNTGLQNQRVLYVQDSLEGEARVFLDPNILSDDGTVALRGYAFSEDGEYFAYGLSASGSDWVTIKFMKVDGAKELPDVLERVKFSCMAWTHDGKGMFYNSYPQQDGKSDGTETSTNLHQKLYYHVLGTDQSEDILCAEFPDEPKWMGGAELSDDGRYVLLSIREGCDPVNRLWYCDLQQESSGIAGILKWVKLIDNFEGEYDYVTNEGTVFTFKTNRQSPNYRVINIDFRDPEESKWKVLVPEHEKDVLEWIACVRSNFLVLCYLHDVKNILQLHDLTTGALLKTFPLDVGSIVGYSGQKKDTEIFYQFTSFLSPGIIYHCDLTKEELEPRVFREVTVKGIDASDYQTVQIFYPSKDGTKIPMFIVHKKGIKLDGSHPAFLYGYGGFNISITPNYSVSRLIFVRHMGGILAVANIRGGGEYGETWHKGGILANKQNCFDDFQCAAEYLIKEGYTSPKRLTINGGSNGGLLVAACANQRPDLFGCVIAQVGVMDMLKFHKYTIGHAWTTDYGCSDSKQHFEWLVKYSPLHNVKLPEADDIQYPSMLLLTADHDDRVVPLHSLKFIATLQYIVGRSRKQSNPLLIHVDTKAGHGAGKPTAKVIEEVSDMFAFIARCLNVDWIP

hFAP (M39-A757) = target: T2, hFAP (M39-A757) (Homo sapiens, UniProt Q12884); assay: biochemical
T2 sequence (Q12884 39-757): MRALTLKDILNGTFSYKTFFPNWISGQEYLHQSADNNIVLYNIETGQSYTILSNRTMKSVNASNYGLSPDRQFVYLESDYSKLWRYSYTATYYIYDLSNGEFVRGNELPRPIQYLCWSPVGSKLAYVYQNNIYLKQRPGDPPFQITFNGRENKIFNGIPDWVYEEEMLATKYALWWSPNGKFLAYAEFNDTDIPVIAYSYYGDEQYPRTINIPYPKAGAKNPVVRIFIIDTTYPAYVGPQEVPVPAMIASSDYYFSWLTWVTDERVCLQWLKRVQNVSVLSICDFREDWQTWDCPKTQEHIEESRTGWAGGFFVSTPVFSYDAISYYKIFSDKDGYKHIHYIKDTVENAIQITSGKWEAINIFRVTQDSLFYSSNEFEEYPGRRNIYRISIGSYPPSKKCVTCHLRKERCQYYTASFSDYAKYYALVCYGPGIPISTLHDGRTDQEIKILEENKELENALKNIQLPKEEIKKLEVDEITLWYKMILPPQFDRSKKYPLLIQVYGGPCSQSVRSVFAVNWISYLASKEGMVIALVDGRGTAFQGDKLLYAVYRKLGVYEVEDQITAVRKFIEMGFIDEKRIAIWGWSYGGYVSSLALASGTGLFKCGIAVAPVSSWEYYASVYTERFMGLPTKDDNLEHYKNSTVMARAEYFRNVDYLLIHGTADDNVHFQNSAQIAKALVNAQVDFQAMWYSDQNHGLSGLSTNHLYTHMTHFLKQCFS
Procedure: Compounds were tested in a direct binding assay using 8K surface plasmon resonance biosensor (GE Healthcare) at 20° C. Immobilization of hFAP (M39-A757) on a CMD200M sensor chip (Xantec) was performed using standard amine coupling procedure in immobilization buffer (10 mM HEPES, 150 mM NaCl, 0.05% Tween20, pH 7.4). The surface was washed with 10 mM aq NaOH, 1M NaCl before being activated with EDC/NHS (GE Healthcare), followed by immobilization of hFAP (in 10 mM Acetate pH 5.0). Finally, the surface was deactivated by ethanolamine. Immobilization levels of hFAP were around 4000-6000 RU. The reference spot was treated as described, omitting the injection of hFAP. Compound concentration series were injected over the immobilized protein in increasing concentrations (2-500 nM) using single cycle kinetics in running buffer (20 mM TRIS, 150 mM NaCl, 0.05% Tween20, 1% DMSO, pH 7.4). Interaction models were fitted globally to the experimental traces, enabling determination of kon, koff and Kd.

hFAP = target: T3, hFAP (Homo sapiens, UniProt Q12884); assay: biochemical
T3 sequence (Q12884 38-760): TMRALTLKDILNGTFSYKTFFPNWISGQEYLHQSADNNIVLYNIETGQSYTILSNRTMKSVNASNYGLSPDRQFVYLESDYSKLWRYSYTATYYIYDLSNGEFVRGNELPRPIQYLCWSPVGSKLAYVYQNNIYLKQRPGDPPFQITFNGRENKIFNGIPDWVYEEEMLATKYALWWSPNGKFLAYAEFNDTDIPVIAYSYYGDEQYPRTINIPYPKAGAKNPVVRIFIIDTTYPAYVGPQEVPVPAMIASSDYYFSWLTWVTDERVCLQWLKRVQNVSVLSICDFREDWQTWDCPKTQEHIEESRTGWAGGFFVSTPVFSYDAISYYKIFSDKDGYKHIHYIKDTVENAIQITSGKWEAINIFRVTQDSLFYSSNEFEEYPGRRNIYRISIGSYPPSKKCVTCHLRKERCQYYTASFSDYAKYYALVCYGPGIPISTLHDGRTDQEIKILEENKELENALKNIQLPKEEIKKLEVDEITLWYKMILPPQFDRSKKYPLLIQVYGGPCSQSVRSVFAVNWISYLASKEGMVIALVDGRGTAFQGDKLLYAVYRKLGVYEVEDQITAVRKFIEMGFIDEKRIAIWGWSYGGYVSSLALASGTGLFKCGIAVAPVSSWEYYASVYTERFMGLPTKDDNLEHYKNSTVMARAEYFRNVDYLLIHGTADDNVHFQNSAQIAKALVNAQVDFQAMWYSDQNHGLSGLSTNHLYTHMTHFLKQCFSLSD
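For pKd in this document: surface plasmon resonance direct binding to hFAP amine-coupled on a sensor chip, rising compound concentrations by single cycle kinetics, Kd from global fit of interaction models.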

SMILES | rHeps CLint (Rat Hepatocytes (rHep)) | microsomal CLint [1] | solubility (Kinetic solubility) | pIC50 [2] | pKd (hFAP (M39-A757)) | pIC50 (hFAP)
N#C[C@@H]1CSCN1C(=O)CNC(=O)c1ccnc2ccc(OCC3CC(F)(F)C3)cc12 [Example 8, (R)—N-(2-(4-Cyanothiazolidin-3-yl)-2-oxoethyl)-6-((3,3-difluorocyclobutyl)methoxy)quinoline-4-carboxamide] | 11 μL/min/1E6 | 45 µL/min/mg | 8.3 µM (≈ 3.71 µg/mL) | 5.92 | – | –
N#C[C@@H]1CSCN1C(=O)CNC(=O)c1ccnc2ccc(C3(c4ccnc(C(F)(F)F)c4)CC3)cc12 [Example 13, (R)—N-(2-(4-Cyanothiazolidin-3-yl)-2-oxoethyl)-6-(1-(2-(trifluoromethyl)pyridin-4-yl)cyclopropyl)quinoline-4-carboxamide] | 140 μL/min/1E6 | > 300 µL/min/mg | 78 µM (≈ 39.9 µg/mL) | 6.34 | 9.92 | –
N#C[C@@H]1CSCN1C(=O)CNC(=O)c1ccnc2ccc(-c3ccoc3)cc12 [Example 14, (R)—N-(2-(4-Cyanothiazolidin-3-yl)-2-oxoethyl)-6-(furan-3-yl)quinoline-4-carboxamide] | 11 μL/min/1E6 | 25 µL/min/mg | 420 µM (≈ 165 µg/mL) | 8.08 | 10.34 | 10.10
CC1(c2ccc3nccc(C(=O)NCC(=O)N4CSC[C@H]4C#N)c3c2)CCOCC1 [Example 21, (R)—N-(2-(4-Cyanothiazolidin-3-yl)-2-oxoethyl)-6-(4-methyl-tetrahydro-2H-pyran-4-yl)quinoline-4-carboxamide] | 7.9 μL/min/1E6 | 100 µL/min/mg | 500 µM (≈ 212 µg/mL) | 8.08 | 6.85 | –
Cc1cc(C2(c3ccc4nccc(C(=O)NCC(=O)N5CSC[C@H]5C#N)c4c3)CC2)no1 [Example 45, (R)—N-(2-(4-Cyanothiazolidin-3-yl)-2-oxoethyl)-6-(1-(5-methylisoxazol-3-yl)cyclopropyl)quinoline-4-carboxamide] | 21 μL/min/1E6 | 70 µL/min/mg | 250 µM (≈ 112 µg/mL) | 6.82 | 9.89 | –
CC(F)(F)Cc1ccc2nccc(C(=O)NCC(=O)N3CSC[C@H]3C#N)c2c1 [Example 53, (R)—N-(2-(4-Cyanothiazolidin-3-yl)-2-oxoethyl)-6-(2,2-difluoropropyl)quinoline-4-carboxamide] | 45 μL/min/1E6 | 36 µL/min/mg | 190 µM (≈ 76.8 µg/mL) | 8.19 | – | –
N#C[C@@H]1CSCN1C(=O)CNC(=O)c1ccnc2ccc(CCC(F)(F)F)cc12 [Example 58, (R)—N-(2-(4-Cyanothiazolidin-3-yl)-2-oxoethyl)-6-(3,3,3-trifluoropropyl)quinoline-4-carboxamide] | 17 μL/min/1E6 | 77 µL/min/mg | 700 µM (≈ 296 µg/mL) | 7.19 | – | –
N#C[C@@H]1CSCN1C(=O)CNC(=O)c1ccnc2ccc(C3(C#N)CCCCC3)cc12 [Example 60, (R)-6-(1-Cyanocyclohexyl)-N-(2-(4-cyanothiazolidin-3-yl)-2-oxoethyl)quinoline-4-carboxamide] | 110 μL/min/1E6 | > 300 µL/min/mg | 180 µM (≈ 78 µg/mL) | 6.54 | – | –
